Test results: US7807721B2, “Compositions for inhibiting the scent tracking ability of mosquitoes in environmentally defined three dimensional spaces” (Biosensory Inc., priority 1999, dated 2010)

Key:
[1] = test system: adult female Aedes aegypti mosquitoes; test: Dual-port olfactometer tests of Example 2: test compound + CS vs CS, and Deet vs inhibitor; type: in vivo
Source text: (§1) A triple cage, dual-port olfactometer, illustrated and described in detail by Posey et al. J. Med. Entomol. 35(3), 330-334 (1998), was used to study the responses of 6 to 8 day old, laboratory-reared adult female Aedes aegypti mosquitoes. This system allows mosquitoes to choose between two different stimuli. The olfactometer is constructed of clear acrylic, comprises three test chambers in a tiered configuration, has paired removable sleeves, and mosquito traps on each chamber, and is equipped with a filtered external air supply system that allows precise temperature (+/−0.5° C.) and relative humidity (+/−2%) control. Only one chamber at a time was used for the tests. Outside air was conditioned prior to entry through the choice ports, the mosquito trap, and the olfactometer by passing through a series of charcoal filters and then heated and humidified, if necessary. One hour before initiation of tests, about 75 female Ae. aegypti mosquitoes were aspirated into the olfactometer chamber and allowed to acclimatize for that one hour before testing. Test compounds were placed into test ports upwind of the traps and olfactometer chamber. A completely randomized design was used for cage position. Competitive tests were conducted. In these competitive tests, the inhibiting compound was placed into one of the ports (treatment port); the second port (check port) had the same apparatus but no chemical inhibiting compound. In these tests, inhibiting compounds were presented in glass Pyrex petri dishes (60×15 mm) that had been cleaned and sterilized in a vacuum oven and then handled only with gloves to minimize any chance of contamination and placed into one port (Treatment Port) along with another petri dish containing 500 μL of Clara Sludge (CS), a synthetic human attractant. The other port (Check Port) contained an untreated petri with no inhibiting compound and a second petri dish containing 500 μL CS. Various concentrations (25, 100, 250, 500 and 1000 μL) of the compounds were used in these tests. Each test was conducted for a period of 3 minutes; the number of mosquitoes trapped in the baited ports, and those remaining in the cage, were counted. The data are then presented as a percentage of total mosquitoes in the cage that were attracted to each port and the percentage of mosquitoes remaining in the cage (i.e., not attracted to either port). Tests identical to that described in Example 1 were conducted with test compounds when employed together with the synthetic human attractant (CS) in a port. The test combinations were: • (1) CS vs. CS (comparison) • (2) dehydrolinalool+CS vs. CS • (3) linalool+CS vs. CS Also for comparison purposes, a known topical mosquito repellent, Deet, namely N,N-diethyl-3-methylbenzamide, was employed to compare to linalool and to dehydrolinalool. Each test compound was tested at 100, 250 and 500 μL. The results are again presented as percent mosquitoes attracted to Ports 1 or 2 or not attracted to either port.

[2] = test system: adult female Aedes aegypti mosquitoes; test: Competitive tests in triple cage, dual-port olfactometer: inhibitor + Clara Sludge (CS) human attractant port vs CS-only port; type: in vivo; settings: for % Mosquitoes Entering Treatment Port (Inhibitor Port): 3 min test; for % Mosquitoes Entering Control Port (Human Scent Port): control port 500 μL CS only; for % Mosquitoes Entering Control Port (Human Scent Port) / % Mosquitoes Remaining in Cage: 3 min
Source text: as §1, with “port).” for “port). Tests identical to that described in Example 1 were conducted with test compounds when employed together with the synthetic human attractant (CS) in a port. The test combinations were: • (1) CS vs. CS (comparison) • (2) dehydrolinalool+CS vs. CS • (3) linalool+CS vs. CS Also for comparison purposes, a known topical mosquito repellent, Deet, namely N,N-diethyl-3-methylbenzamide, was employed to compare to linalool and to dehydrolinalool. Each test compound was tested at 100, 250 and 500 μL. The results are again presented as percent mosquitoes attracted to Ports 1 or 2 or not attracted to either port.”

[3] = 100 micro liter, Port 1 Deet vs Port 2 dehydrolinalool
[4] = 100 micro liter, Port 1 Deet vs Port 2 linalool
[5] = 250 micro liter, Port 1 Deet vs Port 2 dehydrolinalool
[6] = 250 micro liter, Port 1 Deet vs Port 2 linalool
[7] = 500 micro liter, Port 1 Deet vs Port 2 dehydrolinalool
[8] = 500 micro liter, Port 1 Deet vs Port 2 linalool
[9] = 100 micro liter, Port 1 test compound vs Port 2 human scent
[10] = 250 micro liter, Port 1 test compound vs Port 2 human scent
[11] = 500 micro liter, Port 1 test compound vs Port 2 human scent

CCN(CC)C(=O)c1cccc(C)c1 [Deet, N,N-diethyl-3-methylbenzamide, reference compound]
% Mosquitoes Entering Port 1 (Deet) [1, 3]: 60.1%
% Mosquitoes Remaining in Cage [1, 3]: 19.8%
% Mosquitoes Entering Port 1 (Deet) [1, 4]: 56.3%
% Mosquitoes Remaining in Cage [1, 4]: 26.2%
% Mosquitoes Entering Port 1 (Deet) [1, 5]: 48.8%
% Mosquitoes Remaining in Cage [1, 5]: 29.2%
% Mosquitoes Entering Port 1 (Deet) [1, 6]: 48.1%
% Mosquitoes Remaining in Cage [1, 6]: 26.2%
% Mosquitoes Entering Port 1 (Deet) [1, 7]: 42.1%
% Mosquitoes Remaining in Cage [1, 7]: 27.6%
% Mosquitoes Entering Port 1 (Deet) [1, 8]: 49.5%
% Mosquitoes Remaining in Cage [1, 8]: 27.3%

C#CC(C)(O)CCC=C(C)C (stereo not shown) [Dehydrolinalool, dehydrolinalool]
% Mosquitoes Entering Treatment Port (Inhibitor Port) ([2]; 25 micro liter test compound + 500 μL CS in treatment port): 30.23%
% Mosquitoes Entering Control Port (Human Scent Port) ([2]; 25 micro liter test compound in treatment port): 50.77%
% Mosquitoes Remaining in Cage ([2]; 25 micro liter test compound): 19%
% Mosquitoes Entering Treatment Port (Inhibitor Port) ([2]; 100 micro liter test compound + 500 μL CS in treatment port): 31.13%
% Mosquitoes Entering Control Port (Human Scent Port) ([2]; 100 micro liter test compound in treatment port): 53.87%
% Mosquitoes Remaining in Cage ([2]; 100 micro liter test compound): 15%
% Mosquitoes Entering Treatment Port (Inhibitor Port) ([2]; 250 micro liter test compound + 500 μL CS in treatment port): 22.6%
% Mosquitoes Entering Control Port (Human Scent Port) ([2]; 250 micro liter test compound in treatment port): 44.6%
% Mosquitoes Remaining in Cage ([2]; 250 micro liter test compound): 32.8%
% Mosquitoes Entering Treatment Port (Inhibitor Port) ([2]; 500 micro liter test compound + 500 μL CS in treatment port): 24.8%
% Mosquitoes Entering Control Port (Human Scent Port) ([2]; 500 micro liter test compound in treatment port): 56.47%
% Mosquitoes Remaining in Cage ([2]; 500 micro liter test compound): 24.18%
% Mosquitoes Entering Treatment Port (Inhibitor Port) ([2]; 1000 micro liter test compound + 500 μL CS in treatment port): 26.11%
% Mosquitoes Entering Control Port (Human Scent Port) ([2]; 1000 micro liter test compound in treatment port): 42.76%
% Mosquitoes Remaining in Cage ([2]; 1000 micro liter test compound): 27.12%
inhibition of the ability of mosquitoes to locate the human scent (CS) ([2]; all tested concentration levels (25-1000 μL)): greatly inhibit
% Mosquitoes Entering Port 2 (dehydrolinalool) [1, 3]: 20.1%
% Mosquitoes Remaining in Cage [1, 3]: 19.8%
% Mosquitoes Entering Port 1 (test compound + CS) [1, 9]: 18.1%
% Mosquitoes Entering Port 2 (human scent) [1, 9]: 63%
% Mosquitoes Remaining in Cage [1, 9]: 18.9%
% Mosquitoes Entering Port 2 (dehydrolinalool) [1, 5]: 22.5%
% Mosquitoes Remaining in Cage [1, 5]: 29.2%
% Mosquitoes Entering Port 1 (test compound + CS) [1, 10]: 20.1%
% Mosquitoes Entering Port 2 (human scent) [1, 10]: 59.2%
% Mosquitoes Remaining in Cage [1, 10]: 20.6%
% Mosquitoes Entering Port 2 (dehydrolinalool) [1, 7]: 30.3%
% Mosquitoes Remaining in Cage [1, 7]: 27.6%
% Mosquitoes Entering Port 1 (test compound + CS) [1, 11]: 20.6%
% Mosquitoes Entering Port 2 (human scent) [1, 11]: 55.5%
% Mosquitoes Remaining in Cage [1, 11]: 23.9%
